The values below come from US10660934B2, “Neuroprotective peptide” (SENJU PHARMACEUTICAL CO., LTD., priority 2016, dated 2020).

Where no end group is shown, it is not given here.

Series [1] deals with rat retinal ganglion cells (RGC). Kind of series: Hypoxia-induced cell death assay in rat retinal ganglion cells (Calcein-AM/Ethidium homodimer). The settings on record: for Rate of cell-death suppression (%): 24 hours hypoxia. It is filed as cell-based. How it is done: Retinal ganglion cells were isolated by a magnetic activated cell sorting method (MACS). Retinas were harvested from neonatal rats (Slc: Sprague-Dawley, 7-day old) and the tissue was dissociated using a Neural Tissue Dissociation Kit (Miltenyi Biotec, 130-094-802). Then, using a Retinal Ganglion Cell Isolation Kit (Miltenyi Biotec, 130-096-209), the endothelial cells and microglia were removed, and a positive selection for CD90.1^+ RGC was carried out by means of CD90.1MicroBeads. The test was carried out with the approval of the Animal Test Ethics Committee based on the Act on Welfare and Management of Animals (Act number 105 of Oct. 1, 1973, last revision: Act number 38 of Jun. 12, 2013), etc. 2. Cell Culture
After suspending the isolated RGC in a neurobasal medium (Gibco Corporation, 12348-017) containing a B27 supplement (Invitrogen, 0080085-SA), 1 mM of L-glutamine (Gibco, 25030), 50 ng/ml of BDNF (Peprotech, 25-02), 50 ng/ml of CNTF (Peprotech, 450-50) and 5 μm of Forskolin. (Sigma, F6886), they were seeded on a 96-well plate (Corning, 354596), ‘which’ was coated with poly-D-lysine/laminin, at a density of 5×10^3 cells/100 μl/well, and incubated at 37° C. and 5% CO2 for three days.
After having replaced the media with neurobasal media comprising a B27 supplement, 1 mM of L-glutamine […] and each peptide, a hypoxia state (O2 concentration of 0.1% or less) was induced by putting the plate in an Anaero Pack rectangular jar with Anaero Pack Kenki 5% (Mitsubishi Gas Chemical Company, Inc., A-07) with hermetically sealing, and incubating at 37° C. After incubating for 24 hours under hypoxia condition, Calcein-AM and Ethidium homodimer (Invitrogen, L3224) were added to the media. As a result of staining the cells, it was possible to distinguish between the viable cells and the dead cells. The number of viable cells and dead cells were measured using an Image Pro plus, and the rate of viability was given as “the proportion of the viable cell count relative to the total cell count.” 4. Test Results
The isolation and incubation of RGC were performed by the same methods as for Test Example 3-1, and 2.
Commercially available PRP4 (Abnova, H0011272-Q01) having the sequence of SEQ ID NO: 2, was used for Peptide 5. The evaluation of Peptide 5 was carried out by the same evaluation method as used for Test Example 3-3.

A short description of series [2]: Stability in a vitreous humor solution. It is filed as in vitro ADME, rabbit. How it is done: (Two) rabbits were euthanized by intravenous administration of 5 ml of a pentobarbital sodium solution, and then their eyeballs were removed. An incision was made in the equatorial region of each eyeball and the vitreous humor-solution was harvested from each eyeball using a syringe (18G injection needle) at the site of incision. The mixed vitreous humor solution was filtered with a cell strainer (40 μm) and the filtrate was used as the vitreous humor solution for the stability tests. 600 μl of the vitreous humor solution was mixed with 1.2 μl of a Primocin at a concentration of 50 mg/ml and the resultant solution was used as sample solution. 270 μl of the sample solution and […] in a 30 μl aqueous solution were mixed and the resultant mixture was used as the test sample. The test sample was incubated at 37° C. […] The analysis samples were stored frozen at −20° C. until it was time to take readings using them. […] Then, the concentration of Peptide 1 in each sample was analyzed using liquid chromatography. The concentrations were calculated from the area values obtained using the external standard method. […]
The residual rate was calculated using the following formula: Residual rate=(the concentration of peptide after 7 days' incubation/the concentration of peptide in the test samples immediately after they were prepared)×100 [Formula 1]

The test system of series [3] is SH-SY5Y cells. Kind of series: Hypoxia-induced cell death assay in human neuroblastoma SH-SY5Y cells (LDH). The following applies: 100 nM, 24 hours hypoxia (O2 0.1% or less), glucose-free DMEM, mean ± standard error (n = 3). In kind it is cell-based. How it is done: SH-SY5Y cells (ATCC) were sustainably cultured in a DMEM/F12 medium (Invitrogen, 11330-032) supplemented with a 10% serum (Invitrogen, 10062-147) under the condition of 37° C. and 5% CO2.
The cells were seeded on a 96-well plate (Iwaki, 3860-096) at a density of 2×10^4 cells/100 μl/well. The following day the medium was replaced with a DMEM/F12 medium comprising a 1% serum and 10 μM of a retinoic acid (Wako, 302-79-4) and differentiated by incubation for 2 days. After replacing the medium with a glucose-free DMEM medium supplemented with 100 nM of Peptide 1, a hypoxia state (O2 concentration of 0.1% or less) was induced by putting the plate in an Anaero Pack rectangular jar with Anaero Pack Kenki 5% (Mitsubishi Gas Chemical Company, Inc., A-07) with hermetically sealing, and culturing at 37° C. Alter culturing for 24 hours in the hypoxia state, the cell-death inhibiting rate by the peptide was calculated by measuring the amount of LDH in the cells and the medium, using an LDH cytotoxicity detection kit (Takara, MK401). Moreover, 100 nM of an IGF-1 was used as a positive control in the experiment IGF-1 has a protective effect against nerve cell death (Mol. Cell Neurosci, 2011, 47 (3), 181-190). 3. Test Results

[4] abbreviates: 100 nM, mean ± standard error (n = 14-19).

On to HPPPPPFQ (peptide of PRP4) [Peptide 3], for which the “Rate of cell-death suppression (%)” value in series [1] (setting [4]) is on record as 27.2 ± 6.6 %.
Turning to “HPPPPPFQNQQ (peptide of PRP4) [Peptide 2]”, the “Rate of cell-death suppression (%)” value in series [1] (setting [4]) was 26.4 ± 4.8 %.
On to “HPPPPPFQNQQRPP [Peptide 1, HPPPPPFQNQQRPP]”, for which the “stability in a vitreous humor solution (in words)” value in series [2] (7 days at 37° C.) was “stable in a vitreous humor solution”. The remaining at 168 h in series [2] (vitreous humor solution (filtered, from rabbit eyeballs), after 7 days' incubation at 37° C. in rabbit vitreous humor solution, read-out: Residual ratio (%)) was determined as 98.4%.
As for IGF-1, in series [3], the “Cell lethality (%)” value amounted to 88.1 ± 8.3 %.
Turning to QQRPP (Peptide of PRP4) [Peptide 4], the “Rate of cell-death suppression (%)” value in series [1] (setting [4]) was 31.1 ± 7.8 %.

B1: Peptide 5: Commercially available PRP4 (Abnova, H0011272-Q01) having the sequence of SEQ ID NO: 2 (protein)
chain: QSTDNDVNYEDFTFTIPDVEDSSQRPDQGPQRPPPEGLLPRPPGDSGNQDDGPQQRPPKPGGHHRHPPPPPFQNQQRPPQRGHRQLSLPRFPSVSLQEAS
modifications: commercial recombinant protein, possible tag; Peptide of PRP4
With B1, the “Rate of cell-death suppression (%)” value in series [1] (10 nM, mean ± standard error (n = 12 to 18)) is recorded as 66.2 ± 14.4 %. The “suppression of cell death from hypoxia (in words)” value in series [1] (rat RGC, Test Example 4, 10 nM) is reported as “significantly suppressed the cell death from hypoxia”.
